Test results reported in ChEMBL document CHEMBL3227933, “Synthesis and preliminary biological studies of 4- and 5-[2-hydroxy-3-(isopropylamino)propoxy]benzimidazoles: selective beta2 adrenergic blocking agents” (J Med Chem, 1979).

Columns and labels:
Details in all cases: read-out: pA2 (converted)
[1] = target: T1, Beta-1 adrenergic receptor (Cavia porcellus, UniProt B0FL73); assay: Competitive antagonist activity at beta-1 adrenergic receptor in guinea pig assessed as inhibition of isoproterenol-induced atrial beat rate; set-up: species or system Cardiac atrium
[2] = target: T1, Beta-1 adrenergic receptor; assay: Competitive antagonist activity at beta-1 adrenergic receptor in guinea pig assessed as inhibition of isoproterenol-induced atrial contractile force; set-up: species or system Cardiac atrium
[3] = target: Beta-2 adrenergic receptor (Cavia porcellus, UniProt Q8K4Z4); assay: Competitive antagonist activity at beta-2 adrenergic receptor in guinea pig assessed as inhibition of isoproterenol-induced tracheal relaxation
Chain of Beta-2 adrenergic receptor (Q8K4Z4 whole entry): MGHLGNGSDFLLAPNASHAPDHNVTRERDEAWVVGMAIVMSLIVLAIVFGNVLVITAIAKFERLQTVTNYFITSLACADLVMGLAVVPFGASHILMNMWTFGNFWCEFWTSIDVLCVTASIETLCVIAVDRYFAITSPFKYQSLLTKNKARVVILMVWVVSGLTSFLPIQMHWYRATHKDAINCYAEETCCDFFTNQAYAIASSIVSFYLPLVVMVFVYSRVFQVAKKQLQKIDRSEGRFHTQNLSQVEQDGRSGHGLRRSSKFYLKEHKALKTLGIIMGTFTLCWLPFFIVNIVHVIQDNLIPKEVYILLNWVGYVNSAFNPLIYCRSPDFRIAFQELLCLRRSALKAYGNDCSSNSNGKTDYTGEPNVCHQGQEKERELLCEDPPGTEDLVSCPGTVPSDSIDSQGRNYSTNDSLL

T1 sequence (B0FL73 whole entry): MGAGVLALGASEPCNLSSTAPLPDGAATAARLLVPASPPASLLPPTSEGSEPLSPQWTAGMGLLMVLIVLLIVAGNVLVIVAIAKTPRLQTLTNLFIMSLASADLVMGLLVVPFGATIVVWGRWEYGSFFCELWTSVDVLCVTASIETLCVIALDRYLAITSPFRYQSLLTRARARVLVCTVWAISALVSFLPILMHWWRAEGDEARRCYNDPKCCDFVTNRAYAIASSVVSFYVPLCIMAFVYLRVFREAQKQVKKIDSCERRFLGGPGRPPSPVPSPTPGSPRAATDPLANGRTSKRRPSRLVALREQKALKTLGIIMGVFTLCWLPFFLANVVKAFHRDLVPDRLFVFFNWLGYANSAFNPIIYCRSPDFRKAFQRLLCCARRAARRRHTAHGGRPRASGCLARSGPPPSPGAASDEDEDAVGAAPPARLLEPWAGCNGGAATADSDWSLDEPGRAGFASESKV

Compound	Kb [1] [nM]	Kb [2] [nM]	Kb [3] [nM]
CC(C)NCC(O)COc1ccc2[nH]cnc2c1 (stereo unspecified)	1000	851	380
CC(C)NCC(O)COc1cccc2[nH]cnc12 (stereo unspecified)	39.8	30.9	2.29
